Experimental data taken from publication PMC4982760, “Small-molecule inhibitors identify the RAD52-ssDNA interaction as critical for recovery from replication stress and for survival of BRCA2 deficient cells” (eLife, 2016).

Experiments:
[1] = target: T1, RPA-ssDNA interaction (Homo sapiens, UniProt P15927+P27694+P35244); assay: FRET titration of the RPA-Cy3-dT30-Cy5 complex; type: binding; details: range of tested concentrations
T1 construct: made in house
Excerpt: In the cell, ssDNA is typically found in complex with Replication protein A (RPA), the major eukaryotic ssDNA-binding protein essential for DNA replication, repair and recombination ([Wold, 1997]; [Oakley and Patrick, 2010]; [Chen and Wold, 2014]). The RPA-ssDNA complex is a physiologically relevant substrate for the RAD52-mediated strand annealing. […] RPA binds ssDNA with high affinity and extends the ssDNA to its contour length. In our assays such an extension manifests as a distinct FRET state of ~0.3, which is readily distinguished from a FRET state of ~0.48 of free Cy3-dT30-Cy5 ssDNA, as well as ~0.63 FRET of the stoichiometric ssDNA-RPA-RAD52 complex (see Figure 2—figure supplement 1 and ([Grimme and Spies, 2011]) for details). […] Both, however, inhibited the RAD52 binding to and wrapping of RPA-coated ssDNA with IC50 values identical to those determined without RPA (Figure 2e and Figure 3e).
In all experiments, the FRET values for each data point were corrected for the effects of the compounds on the respective substrate in the absence of RAD52.

[2] = tested on: GM01604 cells (hTERT-immortalized wild-type human fibroblasts); assay: Neutral comet assay, MUS81/EME1/RAD52-dependent DSB formation; type: cell-based; details: GM01604, HU + UCN01
Excerpt: In human cells, RAD52 may perform both limited recombination-mediator function in the RAD51-dependent pathway ([Lok and Powell, 2012]; [Benson et al., 1998]; [Feng et al., 2011]) as well as additional RAD51-independent roles ([Lok and Powell, 2012]; [Murfuni et al., 2013]; [McIlwraith and West, 2008]). One of these HR independent roles of RAD52 involves stimulation of MUS81/EME1-dependent DSB formation at replication forks stalled by hydroxyurea (HU) treatment in the absence of cellular checkpoints ([Murfuni et al., 2013]). Since the most likely targets of these MUS81/EME1/RAD52-dependent DSBs are the DNA structures produced by RAD52 ([Murfuni et al., 2013]), we expected this activity to depend on the RAD52-ssDNA interaction (Figure 5a). To confirm this, we assessed DSB formation in checkpoint deficient cells using the neutral comet assay. These assays monitor MUS81/EME1/RAD52-dependent DSB formation upon induction of replication stress by HU treatment in primary fibroblasts immortalized by hTERT expression and treated with UNC01 to inhibit CHK1 kinase (Figure 5b). […] Importantly, these inhibitors recapitulate RAD52 depletion by inhibiting RAD52-MUS81-dependent DSBs at stalled replication forks (Figure 5a–b). […] It also confirms our previous supposition that the target of MUS81/EME1-mediated cleavage under these conditions are indeed the structures annealed by RAD52. […]
To induce RAD52-MUS81-dependent cleavage at arrested replication forks ([Murfuni et al., 2013]), hTERT-immortalized wild-type human fibroblasts (GM01604) were treated with 2 mM HU and 300 nM UCN01 for 6h, in the presence and absence of varying concentrations of ‘1’ or ‘6’. […] Slides were analyzed by a computerized image analysis system (Comet IV, Perceptive UK). To assess the quantity of DNA damage, computer-generated tail moment values (tail length x fraction of total DNA in the tail) were used. […] A minimum of 100 cells were analyzed for each compound concentration point.

[3] = target: T2, interaction between RAD52 and RPA proteins (Homo sapiens, UniProt P43351); assay: Ni-NTA pull-down of the RAD52-RPA interaction; type: binding; details: 3 μM RAD52, 3 μM RPA, 3 μM compound
T2 construct: made in house
T2 sequence (P43351 whole entry): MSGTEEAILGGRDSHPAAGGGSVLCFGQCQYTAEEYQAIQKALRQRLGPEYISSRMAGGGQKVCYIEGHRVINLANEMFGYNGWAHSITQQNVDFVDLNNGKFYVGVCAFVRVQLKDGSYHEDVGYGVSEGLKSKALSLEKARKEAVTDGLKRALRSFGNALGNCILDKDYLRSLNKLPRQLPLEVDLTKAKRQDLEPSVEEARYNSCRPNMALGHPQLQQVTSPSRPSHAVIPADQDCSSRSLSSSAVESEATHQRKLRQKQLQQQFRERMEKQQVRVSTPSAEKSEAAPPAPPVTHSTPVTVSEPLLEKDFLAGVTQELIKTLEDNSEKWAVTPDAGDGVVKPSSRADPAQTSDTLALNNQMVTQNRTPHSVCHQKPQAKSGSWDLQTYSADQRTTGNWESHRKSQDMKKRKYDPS
T2 sequence (P27694 whole entry partner): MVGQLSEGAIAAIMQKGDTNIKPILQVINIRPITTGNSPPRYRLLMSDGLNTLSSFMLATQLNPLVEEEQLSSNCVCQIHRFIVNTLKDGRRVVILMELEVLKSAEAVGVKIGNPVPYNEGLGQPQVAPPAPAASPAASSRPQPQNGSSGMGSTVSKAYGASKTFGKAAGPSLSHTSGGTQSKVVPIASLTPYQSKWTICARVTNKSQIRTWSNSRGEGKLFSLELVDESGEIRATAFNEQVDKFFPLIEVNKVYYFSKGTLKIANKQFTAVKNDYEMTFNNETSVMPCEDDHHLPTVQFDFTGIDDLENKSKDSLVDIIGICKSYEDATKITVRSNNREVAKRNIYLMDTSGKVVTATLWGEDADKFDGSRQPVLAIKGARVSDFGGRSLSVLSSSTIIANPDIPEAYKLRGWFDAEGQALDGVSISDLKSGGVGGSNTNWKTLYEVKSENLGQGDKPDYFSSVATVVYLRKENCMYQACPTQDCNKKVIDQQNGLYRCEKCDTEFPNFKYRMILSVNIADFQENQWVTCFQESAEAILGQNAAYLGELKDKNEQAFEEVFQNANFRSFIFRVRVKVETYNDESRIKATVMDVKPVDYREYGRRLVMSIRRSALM
T2 sequence (P15927 whole entry partner): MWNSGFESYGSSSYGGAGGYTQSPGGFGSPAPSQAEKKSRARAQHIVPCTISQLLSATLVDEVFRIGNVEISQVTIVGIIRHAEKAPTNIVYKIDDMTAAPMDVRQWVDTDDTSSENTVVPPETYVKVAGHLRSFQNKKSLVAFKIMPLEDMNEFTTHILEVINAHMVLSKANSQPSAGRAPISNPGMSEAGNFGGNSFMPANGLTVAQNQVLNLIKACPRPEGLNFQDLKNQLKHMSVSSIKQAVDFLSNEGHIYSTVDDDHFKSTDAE
T2 sequence (P35244 whole entry partner): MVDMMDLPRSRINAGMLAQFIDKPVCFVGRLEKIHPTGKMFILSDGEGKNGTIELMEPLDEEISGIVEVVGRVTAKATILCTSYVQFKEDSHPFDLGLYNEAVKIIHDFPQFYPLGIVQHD

[4] = tested on: GM01604 cells; assay: LIVE/DEAD cell viability assay; type: cell-based, human; details: 1 µM compound
Description: GM01604 cells were transfected with siRNAs directed against GFP (Ctrl), or against MUS81 (Qiagen), BRCA2 (Sigma-Aldrich), and RAD52 (Qiagen) 48 hr prior to addition of 1 µM ‘1’. Where indicated, the conditions of pathological replication were induced by treating cells with 2 mM HU and 300 nM UCN01 for 6 hr or by 18 hr treatment with 2 mM HU, in the presence or absence of ‘1’. Viability was evaluated by the LIVE/DEAD assay (Sigma-Aldrich) according to the manufacturer’s instructions. Cell number was counted in randomly chosen fields and expressed as percent of dead cells (number of red nuclear stained cells divided by the total cell number) corrected for the cell loss observed in the population. For each time point, at least 200 cells were counted.

T1 sequence (P27694 whole entry): as the sequence (P27694 whole entry partner) above
T1 sequence (P15927 whole entry): as the sequence (P15927 whole entry partner) above
T1 sequence (P35244 whole entry): as the sequence (P35244 whole entry partner) above

Q: With Oc1cc(O)c2c(c1)O[C@H](c1cc(O)c(O)c(O)c1)[C@H](O)C2 [Compound 1, (−)−Epigallocatechin] as the compound, how does the “effect on the RPA-ssDNA interaction” value [1] read?
A: neither ‘1’ nor ‘6’ affected the RPA-ssDNA interaction

Q: What about the “concentration sufficient for same level of DSB reduction as siRNA treatment” value [2] of the same compound?
A: 1 µM

Q: And the “concentration with same reduction in DSBs as siRNA depletion of RAD52” value [2]?
A: 500 nM

Q: What about the “effect on the RAD52-RPA interaction” value [3] of the same compound?
A: neither ‘1’ nor ‘6’ interfered with the interaction between the two proteins

Q: And the cell death ([4]; BRCA2-depleted GM01604, after replication stress (HU + UCN01))?
A: ~ 80%

Q: What about the dead cells ([4]; MUS81-depleted GM01604, checkpoint-deficient, HU treated) of the same compound?
A: ~60%

Q: And the dead cells ([4]; MUS81-depleted GM01604, untreated)?
A: approximately 40%
